This assay has as its target αvβ6 integrin (Homo sapiens, UniProt P06756+P18564). Nature of the assay: Influence of soluble substances on the binding of biotinylated fibronectin to immobilised αvβ6 (ELISA-type competition binding test). The conditions noted are these: competition with biotinylated fibronectin at immobilised αvβ6; standard employed in each experiment. The procedure:
The prepared peptides according to the invention together with competing fibronectin were bound in solution to the immobilised αvβ6 receptor, and the Q value as a measure of the selectivity of the binding of the peptide to be tested to αvβ6 was determined. The Q value is calculated from the quotient of the IC50 values of test peptide and a standard. The standard used was the linear Ac-RTDLDSLR-NH2(SEQ ID NO: 22) (WO01/00660; Pytela et al., 1986, Science 231, 1559). The binding test was carried out in detail as follows:
αvβ6 was immobilised on microtitre plates by dilution of the protein solution in TBS++ and subsequent incubation overnight at 4° C. (100 μl/well). Non-specific binding sites were blocked by incubation (2 h; 37° C.) with 3% (w/v) BSA in TBS++ (200 μl/well). Excess BSA was removed by washing three times with TBSA++. […]
Unbound fibronectin and peptides were removed by washing three times with TBSA++. The bound fibronectin was detected by incubation (1 h; 37° C.) with an alkaline phosphatase-coupled antibiotin antibody (1:20000 in TBSA++; 100 μl/well). […] The colour intensity was determined at 405 nm in the ELISA measuring instrument and adjusted against a blank value. […]
IC50 values for the peptides tested were read off from a graph, and the Q value of the peptide was determined therefrom together with the IC50 of the standard.
A general note: ELISA stands for enzyme-linked immunosorbent assay.

The values that follow come from patent US7759302B2, “Peptidic sulfonamides” (Merck Patent GmbH, priority 2003, dated 2010).

“Ac-RTDLDSLR-NH2 [AC-RTDLDSLR-NH2, Ac-RTDLDSLR-NH2]” registered an IC50 of less than 100 nM.

A word on the IC50: it is the concentration that inhibits the measured activity by half. Low readings indicate higher potency, high ones lower potency.
